According to patent US8642597B2, “Pyrazole compounds for controlling invertebrate pests” (BASF SE, priority 2007, dated 2014):

How the values were obtained:
Assay type in all cases: in vivo
[1] = system: Cowpea Aphid (aphis craccivora); assay: Cowpea aphid (aphis craccivora), spray on potted cowpea plants; details: population reduction assessed after 24, 72 and 120 hours, in comparison with untreated controls
Experimental: The active compounds were formulated in 50:50 (vol:vol) acetone:water. The test solution was prepared at the day of use.
Potted cowpea plants colonized with 100-150 aphids of various stages were sprayed after the pest population had been recorded. Population reduction was assessed after 24, 72, and 120 hours.

[2] = system: Green Peach Aphid (Myzus persicae, Mixed Life Stages); assay: Green peach aphid (Myzus persicae, mixed life stages), pepper leaf dip test; details: foliar, 120 h, after 5 days, in comparison with untreated controls
Source text: (§1) The active compounds were formulated in 50:50 (vol:vol) acetone:water and 100 ppm Kinetica™ surfactant.
Pepper plants in the 2nd leaf-pair stage (variety ‘California Wonder’) were infested with approximately 40 laboratory-reared aphids by placing infested leaf sections on top of the test plants. The leaf sections were removed after 24 hr. The leaves of the intact plants were dipped into gradient solutions of the test compound and allowed to dry. Test plants were maintained under fluorescent light (24 hour photoperiod) at about 25° C. and 20-40% relative humidity. Aphid mortality on the treated plants, relative to mortality on check plants, was determined after 5 days.

[3] = system: Cotton Aphid (aphis gossypii, Mixed Life Stages); assay: Cotton aphid (aphis gossypii, mixed life stages), cotyledon dip test; details: 120 h, mortality counts after 5 days, in comparison with untreated controls
Source text: as §1
Cotton plants at the cotyledon stage (one plant per pot) were infested by placing a heavily infested leaf from the main colony on top of each cotyledon. The aphids were allowed to transfer to the host plant overnight, and the leaf used to transfer the aphids was removed. The cotyledons were dipped in the test solution and allowed to dry. After 5 days, mortality counts were made.

[4] = system: Vetch Aphid (Megoura viciae); assay: Vetch aphid (Megoura viciae), bean leaf disk microtiterplate test; details: foliar, 144 h, concentration of the test solution 2500 mg/L, 6 days
Experimental: The active compounds were formulated in 1:3 (vol:vol) DMSO:water with different concentrations of formulated compounds.
Bean leaf disks were placed into microtiterplates filled with 0.8% agar-agar and 2.5 ppm OPUS™. The leaf disks were sprayed with 2.5 μl of the test solution and 5 to 8 adult aphids were placed into the microtiterplates which were then closed and kept at 23±1° C. and 50±5% relative humidity under fluorescent light for 6 days. Mortality was assessed on the basis of vital, reproduced aphids. Aphid mortality and fecundity was then visually assessed.

[5] = system: Boll Weevil (Anthonomus grandis); assay: Boll weevil (Anthonomus grandis), insect diet microtiter plate test; details: 120 h, concentration of the test solution 2500 mg/L, egg and larval mortality after 5 days
Experimental: The compounds were formulated in 75:25 (vol:vol) water:DMSO.
For evaluating control of boll weevil (Anthonomus grandis) the test unit consisted of 24-well-microtiter plates containing an insect diet and 20-30 A. grandis eggs. Different concentrations of formulated compounds were sprayed onto the insect diet at 20 μl, using a custom built micro atomizer, at two replications. After application, the microtiter plates were incubated at 23±1° C. and 50±5% relative humidity for 5 days. Egg and larval mortality was then visually assessed.

Structure (SMILES) | mortality at 300 ppm [1] [%] | mortality at 300 ppm [2] [%] | mortality at 300 ppm [3] [%] | mortality at 2500 µg/mL [4] [%] | mortality at 2500 µg/mL [5] [%]
Cc1cc(C(=O)Nc2cccnc2)nn1C [Compound 10] | ≥ 75 | ≥ 50 | ≥ 75 | – | –
Cn1ncc(C(=O)Nc2cccnc2)c1-c1ccccc1 [Compound 71] | – | ≥ 50 | ≥ 75 | ≥ 80 | –
COc1ccc(-n2ncc(C(=O)Nc3cccnc3)c2C(F)(F)F)cc1 [Compound 226] | – | ≥ 50 | ≥ 75 | ≥ 80 | –
O=C(Nc1cccnc1)c1cnn(-c2ccccc2)c1 [Compound 106] | ≥ 75 | – | – | – | 100
CCCCCCCn1cc(C(=O)Nc2cccnc2)cn1 [Compound 140] | – | ≥ 50 | – | ≥ 80 | –
O=C(Nc1cccnc1)c1cnn(-c2ccc(F)cc2)c1 [Compound 113] | ≥ 75 | – | – | – | –
CO/N=C(/Nc1cccnc1)c1cn(C)nc1C(F)(F)F [Compound 242] | ≥ 75 | ≥ 50 | ≥ 75 | ≥ 80 | –
CC(C)c1c(C(=O)Nc2cccnc2)cnn1-c1ccccc1 [Compound 120] | ≥ 75 | ≥ 50 | ≥ 75 | ≥ 80 | –
Cc1c(C(=O)Nc2cccnc2)cnn1-c1ccc(F)cc1 [Compound 165] | ≥ 75 | ≥ 50 | ≥ 75 | ≥ 80 | –
CCn1cc(C(=O)N(C)c2cccnc2)c(C(F)F)n1 [Compound 182] | ≥ 75 | ≥ 50 | ≥ 75 | ≥ 80 | –
COc1ccccc1-n1ncc(C(=O)Nc2cccnc2)c1C(F)F [Compound 150] | – | ≥ 50 | ≥ 75 | ≥ 80 | 100
CCn1ncc(C(=O)Nc2cccnc2)c1C [Compound 72] | ≥ 75 | – | ≥ 75 | ≥ 80 | –
O=C(Nc1cccnc1)c1cnn(-c2ccc(Cl)cc2)c1C(F)F [Compound 86] | ≥ 75 | ≥ 50 | ≥ 75 | – | 100
CCCN(C(=O)c1cn(C)nc1C(F)(F)F)c1cccnc1 [Compound 202] | ≥ 75 | ≥ 50 | ≥ 75 | ≥ 80 | –
CC(C)c1c(C(=O)Nc2cccnc2)cnn1C [Compound 90] | ≥ 75 | – | – | – | –
C#CCN(C(=O)c1cn(C)nc1C(F)(F)F)c1cccnc1 [Compound 141] | ≥ 75 | ≥ 50 | ≥ 75 | ≥ 80 | –
Cc1c(C(=O)Nc2cccnc2)cnn1C(F)F [Compound 208] | ≥ 75 | ≥ 50 | ≥ 75 | – | –
CC(C)n1cc(C(=O)Nc2cccnc2)cn1 [Compound 200] | ≥ 75 | ≥ 50 | ≥ 75 | – | –
CC(C)N(C(=O)c1cn(C)nc1C(F)(F)F)c1cccnc1 [Compound 130] | – | ≥ 50 | ≥ 75 | ≥ 80 | –
O=C(Nc1cccnc1)c1cn(-c2ccc([N+](=O)[O-])cc2)nc1C(F)F [Compound 171] | – | – | – | – | 100
CCc1c(C(=O)Nc2cccnc2)cnn1-c1ccc([N+](=O)[O-])cc1 [Compound 144] | ≥ 75 | ≥ 50 | ≥ 75 | ≥ 80 | –
